The values below come from patent publication US12139477B2, “Compounds, salts thereof and methods for treatment of diseases” (ACADIA PHARMACEUTICALS INC., priority 2017, dated 2024).

pIC50: −log10 of the molar value.

In one data set the target is T1, hERG channel (Homo sapiens, UniProt Q12809).
T1 construct: host or cells: CHO cells, stably transfected
Nature of the data set: hERG assay, whole cell recordings in CHO cells (AVIVA). It is filed as cell-based. As to conditions: CHO cells stably expressing hERG, pH 7.4. In outline:
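Whole-cell voltage clamp of CHO cells stably expressing hERG, held at −80 mV; steps to +20 mV for 5 s, then −50 mV for 5 s, with tail current measured against a −50 mV baseline, every 12 s. Compounds applied in 4 additions until steady state (max 12 min), vs 0.1% DMSO vehicle baseline.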
(Block of hERG is tested as a sign of cardiac risk.)

The next data set deals with hCav1.2/β2/α2δ channels (Homo sapiens, UniProt Q13936). The data set can be described thus: CaV1.2 manual patch clamp, CHO cells (CR-CLE). The format is cell-based. As to conditions: manual patch clamp, room temperature, read-out: CaV 1.2 IC50. The source says: Stocks were maintained in cryogenic storage. […] Each culture dish was identified by a notation of channel name, passage number, and date.
Rationale for Selection of Ion Channel and Expression Systems: Reduction of ICa,L is associated with action potential shortening in atrial fibrillation (Van Wagoner, et al., Circ Res 85:428-436 (1999)) while augmentation of ICa,L current may produce action potential prolongation (Ahmmed, et al., Circ Res 86:558-570 (2000)) and early after depolarizations (January, et al., Circ Res 62:563-571 (1988)). ICa.L is produced by the combination of calcium channel subunits encoded by CACNA1C (α1-subunit), CACNB2 (β2-subunit) and CACNA2D1 (α2δ-subunit) cDNAs.
• Organism: Cricetulus griseus • Tissue: Ovary; transfected with human CACNA1C • (α1-subunit), CACNB2 (β2-subunit), and • CACNA2D1 (α2δ-subunit) cDNAs • Morphology: Epithelial • Age/Stage: Adult • Source Strain: ATCC, Manassas, VA • Source Substrain: CR-CLE
CHO Cell Culture Procedures: CHO cells were stably co-transfected with human CACNA1C (α1-subunit), CACNB2 (β2-subunit), and CACNA2D1 (α2δ-subunit) cDNAs. Stable transfectants were selected by coexpression of the cDNAs with antibiotic resistance genes for blasticidin, hygromycin, G418, and zeocin. Selection pressure was maintained by including these antibiotics in the culture medium. Cells were cultured in Ham's F12 Medium supplemented with 10% fetal bovine serum, penicillin-streptomycin (100 units/mL), blasticidin (10 μg/mL), zeocin (400 μg/mL), G418 (250 μg/mL) and hygromycin (250 μg/mL). To avoid Ca^2+-induced toxicity, verapamil (3 μmol/L) was added to the cultured cells.
hCav1.2/β2/α2δ-CHO is a tetracycline-inducible cell line. To induce expression, tetracycline at a final concentration of 1 μg/mL was added to media lacking the selection antibiotics. Currents were recorded greater than 16 hours post-induction.
Treatment Groups: All experiments were performed at room temperature. Each cell acted as its own control.
Each concentration was tested in at least three cells (n≥3).
Positive Control Group: The positive control article nifedipine (Sigma-Aldrich) was tested in two cells (n=2) at 0.1 μM. Previous results have shown that nifedipine at 0.1 μM inhibits hCav1.2 current by approximately 90%.
Electrophysiological Procedures: Cells were superfused with vehicle control solution. Micropipette solution for whole cell patch clamp recordings was composed of (mM): Cs-methanesulfonate (MES), 130; TEA-Cl, 20, MgCl2, 1; EGTA, 10; Mg-ATP, 4; Tris-GTP, 0.3, phosphocreatine di-(Tris) salt, 14, creatine phosphokinase, 50 U/mL, and HEPES, 10; pH adjusted to 7.2 with N-methyl-D-glucamine or CsOH. Micropipette solution was prepared in batches, aliquoted, stored frozen, and a fresh aliquot thawed each day. […] Before digitization, current records were low-pass filtered at one-fifth of the sampling frequency.
Experimental Procedures: Onset and steady inhibition was evaluated at a test potential of 0 mV (150 ms duration), repeated at ten-second intervals from a holding potential of −40 mV. Peak current was measured during the step to 0 mV. Peak current was monitored until a new steady state was achieved. hCav1.2 current was monitored until a new steady state was achieved and a steady state was maintained for at least 20 s before applying test article or positive control article formulations. […]
Nonlinear least squares fits were solved with the Solver add-in for Excel 2003 or later (Microsoft, Redmond, WA) and the IC50 was calculated.

T1 sequence (Q12809 whole entry): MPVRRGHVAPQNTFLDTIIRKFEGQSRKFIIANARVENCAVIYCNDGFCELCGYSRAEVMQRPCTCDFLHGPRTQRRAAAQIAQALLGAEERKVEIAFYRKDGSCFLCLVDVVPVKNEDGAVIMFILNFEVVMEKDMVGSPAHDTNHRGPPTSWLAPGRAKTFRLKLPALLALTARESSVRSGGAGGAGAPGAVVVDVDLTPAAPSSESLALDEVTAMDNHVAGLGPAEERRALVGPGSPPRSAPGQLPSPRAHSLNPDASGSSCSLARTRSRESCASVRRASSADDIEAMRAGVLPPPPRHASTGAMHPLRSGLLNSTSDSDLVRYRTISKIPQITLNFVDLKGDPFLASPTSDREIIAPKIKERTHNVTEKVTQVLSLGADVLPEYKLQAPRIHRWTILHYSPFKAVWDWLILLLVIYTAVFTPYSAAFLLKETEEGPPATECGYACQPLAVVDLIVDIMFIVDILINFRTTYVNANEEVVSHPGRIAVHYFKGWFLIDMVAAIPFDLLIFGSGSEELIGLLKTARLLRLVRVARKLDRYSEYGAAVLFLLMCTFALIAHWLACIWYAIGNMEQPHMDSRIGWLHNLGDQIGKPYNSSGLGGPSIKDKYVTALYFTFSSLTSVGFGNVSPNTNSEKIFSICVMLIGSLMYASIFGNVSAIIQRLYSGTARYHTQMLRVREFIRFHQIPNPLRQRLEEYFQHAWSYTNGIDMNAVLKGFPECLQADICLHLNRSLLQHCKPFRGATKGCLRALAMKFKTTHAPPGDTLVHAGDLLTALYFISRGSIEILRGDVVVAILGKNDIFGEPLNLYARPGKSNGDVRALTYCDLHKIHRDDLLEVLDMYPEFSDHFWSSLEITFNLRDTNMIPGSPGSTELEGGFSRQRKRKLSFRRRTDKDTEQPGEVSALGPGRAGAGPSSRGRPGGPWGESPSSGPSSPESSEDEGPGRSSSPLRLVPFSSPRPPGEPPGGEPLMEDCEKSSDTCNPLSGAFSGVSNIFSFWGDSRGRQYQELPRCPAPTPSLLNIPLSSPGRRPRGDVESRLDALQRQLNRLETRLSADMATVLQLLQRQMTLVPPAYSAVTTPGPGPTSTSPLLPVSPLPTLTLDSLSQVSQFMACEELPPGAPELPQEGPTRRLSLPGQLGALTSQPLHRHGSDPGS
Chain of hCav1.2/β2/α2δ channels (Q13936 whole entry): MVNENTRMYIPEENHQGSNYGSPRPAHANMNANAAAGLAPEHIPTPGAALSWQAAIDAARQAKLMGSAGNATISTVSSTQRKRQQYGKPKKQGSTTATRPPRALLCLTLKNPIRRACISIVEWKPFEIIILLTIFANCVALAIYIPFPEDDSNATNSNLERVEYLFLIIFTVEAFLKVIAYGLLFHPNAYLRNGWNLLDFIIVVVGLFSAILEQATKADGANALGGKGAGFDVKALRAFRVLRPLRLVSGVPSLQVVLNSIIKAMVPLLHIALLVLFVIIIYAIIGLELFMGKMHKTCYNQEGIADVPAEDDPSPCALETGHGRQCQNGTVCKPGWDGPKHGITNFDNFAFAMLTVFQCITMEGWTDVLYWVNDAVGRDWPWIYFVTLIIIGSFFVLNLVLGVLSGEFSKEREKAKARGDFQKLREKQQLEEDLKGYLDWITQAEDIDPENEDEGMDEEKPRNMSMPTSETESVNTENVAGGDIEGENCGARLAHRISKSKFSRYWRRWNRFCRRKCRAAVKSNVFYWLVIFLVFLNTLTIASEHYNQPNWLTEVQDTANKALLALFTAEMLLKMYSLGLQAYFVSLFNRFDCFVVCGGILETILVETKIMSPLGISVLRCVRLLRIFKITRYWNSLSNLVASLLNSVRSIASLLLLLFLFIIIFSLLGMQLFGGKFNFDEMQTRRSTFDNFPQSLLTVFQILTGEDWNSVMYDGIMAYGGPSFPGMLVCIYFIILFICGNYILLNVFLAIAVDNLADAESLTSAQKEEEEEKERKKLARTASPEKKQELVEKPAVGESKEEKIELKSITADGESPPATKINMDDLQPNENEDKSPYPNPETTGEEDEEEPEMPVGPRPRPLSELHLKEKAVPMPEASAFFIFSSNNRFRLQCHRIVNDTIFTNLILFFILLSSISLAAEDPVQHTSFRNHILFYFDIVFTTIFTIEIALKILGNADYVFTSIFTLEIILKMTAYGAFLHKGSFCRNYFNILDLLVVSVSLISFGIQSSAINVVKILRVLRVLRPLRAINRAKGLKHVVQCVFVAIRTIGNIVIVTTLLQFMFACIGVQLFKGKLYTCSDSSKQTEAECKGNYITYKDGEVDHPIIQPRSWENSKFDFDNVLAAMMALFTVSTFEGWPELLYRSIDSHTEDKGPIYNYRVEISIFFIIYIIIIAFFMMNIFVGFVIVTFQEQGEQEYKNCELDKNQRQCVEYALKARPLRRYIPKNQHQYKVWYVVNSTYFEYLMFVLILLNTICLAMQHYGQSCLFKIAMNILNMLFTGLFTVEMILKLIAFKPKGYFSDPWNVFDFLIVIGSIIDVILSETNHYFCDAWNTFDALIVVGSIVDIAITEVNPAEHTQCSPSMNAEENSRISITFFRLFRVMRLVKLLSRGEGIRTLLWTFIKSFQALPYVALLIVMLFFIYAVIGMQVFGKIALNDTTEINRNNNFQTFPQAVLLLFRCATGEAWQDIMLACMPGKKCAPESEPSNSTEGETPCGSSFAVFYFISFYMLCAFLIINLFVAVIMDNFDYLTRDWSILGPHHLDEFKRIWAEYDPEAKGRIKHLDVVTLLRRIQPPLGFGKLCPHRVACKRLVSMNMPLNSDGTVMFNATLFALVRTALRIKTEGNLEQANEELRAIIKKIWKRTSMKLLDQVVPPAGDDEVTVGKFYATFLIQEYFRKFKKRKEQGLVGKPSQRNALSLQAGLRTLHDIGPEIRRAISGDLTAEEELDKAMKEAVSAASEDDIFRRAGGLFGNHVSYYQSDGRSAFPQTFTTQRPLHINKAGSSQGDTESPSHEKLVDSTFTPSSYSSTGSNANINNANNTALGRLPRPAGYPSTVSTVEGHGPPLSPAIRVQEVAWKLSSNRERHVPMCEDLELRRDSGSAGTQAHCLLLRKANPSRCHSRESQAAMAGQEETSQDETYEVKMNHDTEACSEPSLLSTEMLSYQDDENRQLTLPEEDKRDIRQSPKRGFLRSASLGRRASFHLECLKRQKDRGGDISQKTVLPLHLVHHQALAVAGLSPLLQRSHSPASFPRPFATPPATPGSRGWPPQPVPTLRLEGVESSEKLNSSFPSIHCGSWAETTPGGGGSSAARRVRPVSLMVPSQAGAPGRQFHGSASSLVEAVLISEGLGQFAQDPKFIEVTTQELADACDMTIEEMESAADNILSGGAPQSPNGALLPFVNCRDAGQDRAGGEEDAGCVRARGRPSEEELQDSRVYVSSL
Chain of hCav1.2/β2/α2δ channels (Q08289 whole entry partner): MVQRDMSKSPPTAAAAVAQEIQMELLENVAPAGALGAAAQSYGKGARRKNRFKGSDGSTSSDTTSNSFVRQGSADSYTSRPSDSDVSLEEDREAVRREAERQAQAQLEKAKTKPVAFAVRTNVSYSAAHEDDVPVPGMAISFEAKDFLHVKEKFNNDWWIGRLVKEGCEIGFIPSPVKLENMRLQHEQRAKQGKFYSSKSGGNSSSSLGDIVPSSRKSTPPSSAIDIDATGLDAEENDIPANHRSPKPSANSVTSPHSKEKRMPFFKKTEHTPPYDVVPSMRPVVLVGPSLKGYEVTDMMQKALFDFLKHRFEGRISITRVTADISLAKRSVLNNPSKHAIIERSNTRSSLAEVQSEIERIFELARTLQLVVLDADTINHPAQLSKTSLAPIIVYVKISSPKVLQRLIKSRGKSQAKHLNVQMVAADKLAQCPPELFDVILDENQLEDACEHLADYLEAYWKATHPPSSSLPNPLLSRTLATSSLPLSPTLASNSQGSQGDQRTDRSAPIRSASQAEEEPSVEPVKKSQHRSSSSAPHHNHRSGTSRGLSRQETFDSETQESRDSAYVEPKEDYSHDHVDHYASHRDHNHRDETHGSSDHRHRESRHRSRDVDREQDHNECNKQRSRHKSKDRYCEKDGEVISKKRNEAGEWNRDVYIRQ
Chain of hCav1.2/β2/α2δ channels (P54289 25-956 partner limits assumed): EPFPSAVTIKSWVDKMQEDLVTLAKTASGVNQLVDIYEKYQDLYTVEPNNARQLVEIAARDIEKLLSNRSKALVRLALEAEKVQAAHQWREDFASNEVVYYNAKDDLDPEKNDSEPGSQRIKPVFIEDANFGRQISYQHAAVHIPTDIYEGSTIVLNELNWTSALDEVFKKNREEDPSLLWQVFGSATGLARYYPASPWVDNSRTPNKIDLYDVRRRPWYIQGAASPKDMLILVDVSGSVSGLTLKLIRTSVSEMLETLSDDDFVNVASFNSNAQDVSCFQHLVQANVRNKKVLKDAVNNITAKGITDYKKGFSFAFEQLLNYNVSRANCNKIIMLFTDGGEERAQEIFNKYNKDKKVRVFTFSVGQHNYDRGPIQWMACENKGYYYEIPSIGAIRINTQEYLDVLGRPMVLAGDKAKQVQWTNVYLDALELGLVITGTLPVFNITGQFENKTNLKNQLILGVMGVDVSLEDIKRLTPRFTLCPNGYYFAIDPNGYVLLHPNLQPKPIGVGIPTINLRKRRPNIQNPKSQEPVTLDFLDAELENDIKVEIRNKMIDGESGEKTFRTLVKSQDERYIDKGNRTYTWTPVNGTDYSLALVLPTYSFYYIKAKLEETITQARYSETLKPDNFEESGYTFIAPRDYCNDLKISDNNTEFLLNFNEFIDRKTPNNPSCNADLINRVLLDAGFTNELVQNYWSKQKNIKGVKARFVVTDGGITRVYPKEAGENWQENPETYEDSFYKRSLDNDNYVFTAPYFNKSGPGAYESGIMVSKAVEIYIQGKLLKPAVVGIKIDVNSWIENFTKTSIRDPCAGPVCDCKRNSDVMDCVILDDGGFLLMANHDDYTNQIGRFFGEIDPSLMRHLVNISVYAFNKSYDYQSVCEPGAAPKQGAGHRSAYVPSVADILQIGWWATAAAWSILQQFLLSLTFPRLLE
Chain of hCav1.2/β2/α2δ channels (P54289 957-1103 partner limits assumed): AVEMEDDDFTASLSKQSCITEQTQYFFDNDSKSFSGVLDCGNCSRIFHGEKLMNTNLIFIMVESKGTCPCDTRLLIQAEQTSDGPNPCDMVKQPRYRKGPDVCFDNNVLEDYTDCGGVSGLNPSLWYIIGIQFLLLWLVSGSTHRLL

Turning to `CC(C)Oc1ccc(CNC(=O)N(Cc2ccc(F)cc2F)C2CCN(C)CC2)cc1` [Example 5, 1-[(2,4-difluorophenyl)methyl]-1-(1-methylpiperidin-4-yl)-3-{[4-(propan-2-yloxy)phenyl]methyl}urea], testing at 1 µM on hERG channel gave an inhibition of 29%. The negative logarithm of the IC50 (pIC50) – broadly, the negative decadic logarithm of the IC50, by convention in mol/L – on hCav1.2/β2/α2δ channels was 4.95.

`CC(C)COc1ccc(CNC(=O)N(Cc2ccc(F)cc2F)C2CCN(C)CC2)cc1` [Example 3, 1-[(2,4-difluorophenyl)methyl]-1-(1-methylpiperidin-4-yl)-3-{[4-(2-methylpropoxy)phenyl]methyl}urea]: the inhibition (in general, the change of the read-out against control, counted positive when it falls) at 1 µM on hERG channel is 33%. In addition, the pIC50 at hCav1.2/β2/α2δ channels was 5.85.

On hERG channel, `CN1CCC(N(Cc2ccc(F)cc2F)C(=O)NCc2ccc(OC3CC3)cc2)CC1` [Example 17, 3-[(4-cyclopropoxyphenyl)methyl]-1-[(2,4-difluorophenyl)methyl]-1-(1-methylpiperidin-4-yl)urea] showed an inhibition at 1 µM of 32%. The pIC50 at hCav1.2/β2/α2δ channels was 5.46.
